What was measured:
Type in all cases: in vivo
[1] = test system: woolly cupgrass (Eriochloa villosa); assay: Test B pre-/postemergence plant response
Procedure, shortened: (§1)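 Visual scoring from 0 (no effect) to 100 (complete control) against untreated controls was done 13 to 15 days after greenhouse treatment. Chemicals were formulated in a surfactant-containing non-phytotoxic solvent and applied to soil preemergence or to 1- to 4-leaf (2-18 cm) plants postemergence.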

[2] = test system: wheat (Triticum aestivum); assay: Test B pre-/postemergence plant response
Procedure, shortened: as §1

[3] = test system: downy bromegrass (Bromus tectorum); assay: Test B pre-/postemergence plant response; settings: for Bromegrass, Downy plant response rating: 8 g ai/ha
Procedure, shortened: as §1

[4] = test system: common (oilseed) sunflower (Helianthus annuus); assay: Test B pre-/postemergence plant response; settings: Preemergence
Procedure, shortened: as §1

[5] = test system: pigweed (Amaranthus retroflexus); assay: Test B pre-/postemergence plant response
Procedure, shortened: as §1

[6] = test system: goosegrass (Eleusine indica); assay: Test B pre-/postemergence plant response
Procedure, shortened: as §1

[7] = test system: green foxtail (Setaria viridis); assay: Test B pre-/postemergence plant response
Procedure, shortened: as §1

[8] = test system: Russian thistle (Salsola iberica); assay: Test B pre-/postemergence plant response; settings: Preemergence
Procedure, shortened: as §1

[9] = test system: catchweed bedstraw (Galium aparine); assay: Test B pre-/postemergence plant response; settings: Preemergence, scale 0 to 100
Procedure, shortened: as §1

[10] = test system: soybean (Glycine max); assay: Test B pre-/postemergence plant response
Procedure, shortened: as §1

[11] = test system: cocklebur (Xanthium strumarium); assay: Test B pre-/postemergence plant response; settings: for Cocklebur plant response rating: 8 g ai/ha
Procedure, shortened: as §1

[12] = test system: large crabgrass (Digitaria sanguinalis); assay: Test B pre-/postemergence plant response
Procedure, shortened: as §1

[13] = test system: velvetleaf (Abutilon theophrasti); assay: Test B pre-/postemergence plant response
Procedure, shortened: as §1

[14] = test system: rice (Oryza sativa); assay: Test B flooded paddy test plant response; settings: Flood (flooded paddy test), scale 0 to 100, 0 no effect, 100 complete control
Procedure, shortened: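 Rice, umbrella sedge, ducksalad and barnyardgrass at 2-leaf stage; pots flooded to 3 cm, compounds applied into paddy water, depth held throughout. Greenhouse 13 to 15 days, then visual rating vs untreated controls on 0–100 scale (0 no effect, 100 complete control); dash means no test result.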

[15] = 8 g ai/ha, postemergence, 0-100 scale
[16] = Postemergence, 16 g ai/ha, scale 0 to 100
[17] = Postemergence, 31 g ai/ha, scale 0 to 100
[18] = Postemergence, 62 g ai/ha, scale 0 to 100, 0 no effect, 100 complete control
[19] = Preemergence, 31 g ai/ha, 0 to 100 scale, 0 no effect, 100 complete control
[20] = Preemergence, 62 g ai/ha, scale 0 to 100
[21] = Preemergence, 8 g ai/ha, scale 0 to 100
[22] = Preemergence, 16 g ai/ha, scale 0 to 100
[23] = Preemergence, 31 g ai/ha, scale 0 to 100 (0 no effect, 100 complete control)
[24] = Preemergence, 62 g ai/ha, 0 to 100 scale, 0 no effect, 100 complete control
[25] = Preemergence, 16 g ai/ha, scale 0 to 100 (0 no effect, 100 complete control)
[26] = 31 g ai/ha, scale 0 to 100 (0 no effect, 100 complete control)

SMILES: Cc1cc(-c2ccc(Cl)cc2)nn1-c1c(OC(=O)c2cccs2)cnn(C)c1=O [Compound 52]
- Cupgrass, Woolly plant response rating [1, 15]: 75
- Plant response rating, Cupgrass, Woolly [1, 16]: 90
- Plant response rating, Cupgrass, Woolly [1, 17]: 95
- Plant response rating, Cupgrass, Woolly [1, 18]: 100
- Plant response rating, Cupgrass, Woolly [1, 19]: 0
- Plant response rating, Cupgrass, Woolly [1, 20]: 0
- Cupgrass, Woolly plant response rating [1, 21]: 0
- Cupgrass, Woolly plant response rating [1, 22]: 0
- Wheat plant response rating [2, 15]: 0
- Plant response rating, Wheat [2, 16]: 50
- Plant response rating, Wheat [2, 17]: 70
- Plant response rating, Wheat [2, 18]: 85
- Plant response rating, Wheat [2, 23]: 20
- Plant response rating, Wheat [2, 24]: 50
- Wheat plant response rating [2, 21]: 0
- Wheat plant response rating [2, 22]: 0
- Bromegrass, Downy plant response rating ([3]; postemergence, 0-100 scale): 30
- Plant response rating, Bromegrass, Downy [3, 16]: 30
- Plant response rating, Bromegrass, Downy [3, 17]: 40
- Plant response rating, Bromegrass, Downy [3, 18]: 70
- Plant response rating, Bromegrass, Downy [3, 25]: 35
- Plant response rating, Bromegrass, Downy [3, 19]: 35
- Plant response rating, Bromegrass, Downy [3, 20]: 80
- Bromegrass, Downy plant response rating ([3]; Preemergence, scale 0 to 100): 0
- Plant response rating, Sunflower [4, 26]: 0
- Plant response rating, Sunflower ([4]; 62 g ai/ha, scale 0 to 100): 0
- Sunflower plant response rating ([4]; 8 g ai/ha, scale 0 to 100): 0
- Sunflower plant response rating ([4]; 16 g ai/ha, scale 0 to 100): 0
- Pigweed plant response rating [5, 15]: 0
- Plant response rating, Pigweed [5, 16]: 0
- Plant response rating, Pigweed [5, 17]: 0
- Plant response rating, Pigweed [5, 18]: 0
- Plant response rating, Pigweed [5, 23]: 0
- Plant response rating, Pigweed [5, 20]: 0
- Pigweed plant response rating [5, 21]: 0
- Pigweed plant response rating [5, 22]: 0
- Goosegrass plant response rating [6, 15]: 60
- Plant response rating, Goosegrass [6, 16]: 65
- Plant response rating, Goosegrass [6, 17]: 80
- Plant response rating, Goosegrass [6, 18]: 85
- Plant response rating, Goosegrass [6, 19]: 0
- Plant response rating, Goosegrass [6, 20]: 0
- Goosegrass plant response rating [6, 21]: 0
- Goosegrass plant response rating [6, 22]: 0
- Foxtail, Green plant response rating [7, 15]: 80
- Plant response rating, Foxtail, Green [7, 16]: 95
- Plant response rating, Foxtail, Green [7, 17]: 98
- Plant response rating, Foxtail, Green [7, 18]: 100
- Plant response rating, Foxtail, Green [7, 19]: 100
- Plant response rating, Foxtail, Green [7, 20]: 100
- Foxtail, Green plant response rating [7, 21]: 90
- Foxtail, Green plant response rating [7, 22]: 90
- Plant response rating, Russian Thistle [8, 26]: 0
- Plant response rating, Russian Thistle ([8]; 62 g ai/ha, scale 0 to 100): 0
- Russian Thistle plant response rating ([8]; 8 g ai/ha, scale 0 to 100): 0
- Russian Thistle plant response rating ([8]; 16 g ai/ha, scale 0 to 100): 0
- Plant response rating, Galium ([9]; 62 g ai/ha): 0
- Galium plant response rating ([9]; 8 g ai/ha): 0
- Galium plant response rating ([9]; 16 g ai/ha): 0
- Soybean plant response rating [10, 15]: 0
- Plant response rating, Soybean [10, 16]: 0
- Plant response rating, Soybean [10, 17]: 0
- Plant response rating, Soybean [10, 18]: 0
- Plant response rating, Soybean [10, 20]: 0
- Soybean plant response rating [10, 21]: 0
- Soybean plant response rating [10, 22]: 0
- Cocklebur plant response rating ([11]; postemergence, 0-100 scale): 0
- Plant response rating, Cocklebur [11, 16]: 0
- Plant response rating, Cocklebur [11, 17]: 0
- Plant response rating, Cocklebur [11, 18]: 0
- Plant response rating, Cocklebur [11, 25]: 0
- Plant response rating, Cocklebur [11, 19]: 0
- Plant response rating, Cocklebur [11, 20]: 0
- Cocklebur plant response rating ([11]; Preemergence, scale 0 to 100): 0
- Crabgrass, Large plant response rating [12, 15]: 65
- Plant response rating, Crabgrass, Large [12, 16]: 85
- Plant response rating, Crabgrass, Large [12, 17]: 100
- Plant response rating, Crabgrass, Large [12, 18]: 100
- Plant response rating, Crabgrass, Large [12, 19]: 0
- Plant response rating, Crabgrass, Large [12, 20]: 0
- Crabgrass, Large plant response rating [12, 21]: 0
- Crabgrass, Large plant response rating [12, 22]: 0
- Velvetleaf plant response rating [13, 15]: 0
- Plant response rating, Velvetleaf [13, 16]: 0
- Plant response rating, Velvetleaf [13, 17]: 0
- Plant response rating, Velvetleaf [13, 18]: 0
- Plant response rating, Velvetleaf [13, 23]: 0
- Plant response rating, Velvetleaf [13, 24]: 0
- Velvetleaf plant response rating [13, 21]: 0
- Velvetleaf plant response rating [13, 22]: 0
- Plant response rating, Rice ([14]; 62 g ai/ha): 10
- Plant response rating, Rice ([14]; 250 g ai/ha): 60

From US20100267561A1, “HERBICIDAL PYRIDAZINONE DERIVATIVES” (priority 2007, published 2010)
